In patent publication US5616573A, “Glucocorticoids” (Schering Aktiengesellschaft, priority 1993, dated 1997):
Where a SMILES comes first, the peptide text is derived from it. The star is where a group is joined. Methylprednisolone(17-OCOEt) = CCC(=O)O[C@]1(C(=O)CO*)CC[C@H]2[C@@H]3C[C@H](C)C4=CC(=O)C=C[C@]4(C)[C@H]3[C@@H](O)C[C@@]21C; X1 = C[C@H]1C[C@@H]2[C@H]([C@@H](O)C[C@@]3(C)[C@H]2CC[C@]3(O)C(=O)CO*)[C@@]2(C)C=CC(=O)C=C12; X5 = C[C@]12CCC(=O)C=C1CC[C@@H]1[C@@H]2[C@@H](O)C[C@@]2(C)[C@H]1CC[C@]2(O)C(=O)CO*; Fmoc = O=C(OCC1c2ccccc2-c2ccccc21)*; Boc = CC(C)(C)OC(=O)*

Key:
Esterases of Rat Skin = experiment: Cleavage in the Homogenate of Normal Rat Skin (unspecific cleavage by esterases of rat skin); format: in vitro ADME; details: percent of hydrolysis rate of 6α-methylprednisolone-17-propionate-21-acetate; approximately 100 μmol/l, pH=7.4, 37° C.
Experimental: (§1) The homogenate of the skin of male rats (0.1 mol/l of phosphate buffer, pH=7.4) is centrifuged for 20 minutes at 10,000 g. The supernatant is adjusted in phosphate buffer to a protein concentration of 3 mg/ml. The test substances in 20 μl of ethanol are added to 1 ml of this homogenate. The final concentration of the corticoid derivatives is approximately 100 μmol/l. The incubation takes place for different periods at 37° C. At the end of incubation, the samples are extracted three times with 3 ml of chloroform. The combined extracts are evaporated to dryness under nitrogen and taken up with 100 μl of ethanol. The ethanolic solutions are mixed with the same volume of water and the saponification products are separated by HPLC (RP 18, acetonitrile/water-gradient, detection 240 nm). The relative hydrolysis rate is indicated in percent of the hydrolysis rate of the 6α-methylprednisolone-17-propionate-21-acetate.

Leukocyte Elastase = biological target: T1, Leukocyte Elastase (Homo sapiens, UniProt P08246); experiment: Cleavage of Glucocorticoid-21-Oligopeptide Esters by Leukocyte Elastase in the lysate of human neutrophilic granulocytes; format: biochemical; details: lysate of human neutrophilic granulocytes, 10^6 cells per ml, 1 hour at 37° C.; Fmoc-Ala-Ala-Pro-Val-O-MPP is used as reference
T1 construct: also pure human sputum elastase (Elastin Products)
T1 sequence (P08246 30-267): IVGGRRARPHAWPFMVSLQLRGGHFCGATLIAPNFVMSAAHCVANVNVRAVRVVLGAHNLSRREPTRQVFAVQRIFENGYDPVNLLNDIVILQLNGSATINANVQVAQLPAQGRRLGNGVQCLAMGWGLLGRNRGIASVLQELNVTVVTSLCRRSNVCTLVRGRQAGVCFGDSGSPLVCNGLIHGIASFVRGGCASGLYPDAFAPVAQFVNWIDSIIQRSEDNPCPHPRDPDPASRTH
Experimental: as §1
Polymorphonuclear granulocytes are isolated from donor blood. The cells are lysed in a density of 10^6 cells per ml. 1 ml each of the lysate is mixed with 20 μl of ethanolic corticoid solution (5 mmol/l) After 1 hour of incubation at 37° C., the samples are extracted three times with 3 ml of chloroform and worked up as described above for HPLC analysis. The cleavage of the prodrugs according to the invention can be inhibited under these test conditions by the addition of the specific elastase inhibitor MeO-succinyl-Ala-Ala-Pro-Val-chloromethylketone to 90%. Furthermore, the compounds are also hydrolyzed by pure human sputum-elastase (elastin products).

rat ear = experiment: Local antiinflammatory action: modified rat ear test according to Tonelli (croton oil); format: in vivo; details: topical, * = significant (p < 0.05); for Edema [% inhibition]: ear weight, 16 hours after irritant; for Infiltration [% inhibition]: granulocytic infiltrate (myeloperoxidase and leukocyte-elastase), 16 hours
Experimental: The antiinflammatory activity of the corticoid-21-oligopeptide esters is performed in a modified rat ear test according to Tonelli. The modifications are based on changes of irritant solution (4% croton oil, 10% DMSO in ethanol), the type of administration (application of the solution with pipette) and the evaluation of the test 16 hours after administration of the irritant solution. At this time, both the inhibition of the edema by measuring the ear weight and the inhibition of the granulocytic infiltrate by measuring the granulocyte marker myeloperoxidase and leukocyte-elastase in the ear homogenate can be determined. The group size was 6 animals in each case.

[1] = biological target: T2, rat glucocorticoid receptor (Rattus norvegicus, UniProt P06536); experiment: Binding to the Glucocorticoid Receptor: competitive displacement of tritiated dexamethasone in rat thymus cytosol; details: quotient of concentrations of test substance and dexamethasone displacing 50% of labeled dexamethasone; 2 hours at 4° C.; lower KF = better binding
T2 sequence (P06536 1-795): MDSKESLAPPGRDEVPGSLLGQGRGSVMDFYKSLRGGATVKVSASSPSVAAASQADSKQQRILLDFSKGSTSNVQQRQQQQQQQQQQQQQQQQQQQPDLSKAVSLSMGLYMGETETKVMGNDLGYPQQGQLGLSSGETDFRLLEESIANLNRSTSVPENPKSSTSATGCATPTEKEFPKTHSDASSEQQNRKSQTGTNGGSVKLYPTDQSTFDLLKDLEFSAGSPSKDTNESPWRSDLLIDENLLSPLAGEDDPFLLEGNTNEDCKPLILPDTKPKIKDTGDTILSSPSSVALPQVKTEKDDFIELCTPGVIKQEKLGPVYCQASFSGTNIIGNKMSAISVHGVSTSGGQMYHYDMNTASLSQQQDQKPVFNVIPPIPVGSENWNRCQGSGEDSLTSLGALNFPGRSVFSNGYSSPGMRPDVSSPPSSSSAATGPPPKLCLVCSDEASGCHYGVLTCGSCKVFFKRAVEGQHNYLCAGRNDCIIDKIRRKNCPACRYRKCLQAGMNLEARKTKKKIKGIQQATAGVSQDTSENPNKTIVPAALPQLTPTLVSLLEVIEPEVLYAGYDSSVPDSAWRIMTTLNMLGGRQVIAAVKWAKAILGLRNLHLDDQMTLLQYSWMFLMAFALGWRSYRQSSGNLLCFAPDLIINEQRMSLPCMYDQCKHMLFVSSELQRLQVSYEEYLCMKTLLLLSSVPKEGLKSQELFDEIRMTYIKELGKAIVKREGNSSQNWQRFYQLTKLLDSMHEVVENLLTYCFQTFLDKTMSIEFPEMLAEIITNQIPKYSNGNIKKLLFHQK
Experimental: The binding of the substances according to the invention to the rat glucocorticoid receptor is determined by competitive displacement of tritiated dexamethasone from the receptor binding. Different concentrations of the glucocorticoid esters are incubated for 2 hours at 4° C. in the presence of a constant concentration of tritium-labeled dexamethasone with rat thymus cytosol. After the incubation time, the non-protein-bound steroids are adsorbed on activated carbon and the activated carbon is centrifuged off. The radioactivity in the supernatant is used as a measurement for the amount of receptor-bound dexamethasone.
From the measurements, the concentrations of the respective corticoid derivative are calculated, which are necessary to displace 50% of the labeled dexamethasone from the receptor binding. Competition factor (KF) is the quotient of these calculated concentrations for the test substance and that of dexamethasone.

[2] = concentration 0.003 (unit not given)
[3] = concentration 0.03 (unit not given)
[4] = concentration 0.3 (unit not given)

Row | Structure (SMILES) | Relative Hydrolysis Rate [%] (Esterases of Rat Skin) | Relative Hydrolysis Rate [%] (Leukocyte Elastase) | Edema [% inhibition] (rat ear; [2]) [%] | Infiltration [% inhibition] (rat ear; [2]) [%] | Edema [% inhibition] (rat ear; [3]) [%] | Infiltration [% inhibition] (rat ear; [3]) [%] | Edema [% inhibition] (rat ear; [4]) [%] | Infiltration [% inhibition] (rat ear; [4]) [%] | Competition Factor [KF] [1]
1 | CCC(=O)O[C@]1(C(=O)COC(=O)[C@@H](NC(=O)[C@@H]2CCCN2C(=O)[C@H](C)NC(=O)[C@H](C)NC(=O)OC(C)(C)C)C(C)C)CC[C@H]2[C@@H]3C[C@H](C)C4=CC(=O)C=C[C@]4(C)[C@H]3[C@@H](O)C[C@@]21C [Example 3, N-(N-(N-(N-(1,1-Dimethylethoxycarbonyl)-L-alanyl)-L-alanyl)-L -prolyl)-L-valine [11β,21-dihydroxy-3,20-dioxo-6α-methyl-17-propionyloxy-pregna-1,4-dien-21-yl] ester] (Boc-AAPV-{Methylprednisolone(17-OCOEt)}) | 50 | 160-190% | 17 | 11 | 51 | 43 | 81 | 77 | –
2 | CCC(=O)O[C@]1(C(=O)COC(=O)[C@@H](NC(=O)[C@@H]2CCCN2C(=O)[C@H](C)NC(=O)[C@H](C)NC(=O)OCC2c3ccccc3-c3ccccc32)C(C)C)CC[C@H]2[C@@H]3C[C@H](C)C4=CC(=O)C=C[C@]4(C)[C@H]3[C@@H](O)C[C@@]21C [Example 4, N-(N-(N-(N-(9H-Fluoren-9-ylmethoxycarbonyl)-L-alanyl)-L-alanyl) -L-prolyl)-L-valine [11β,21-dihydroxy-3,20-dioxo-6α-methyl-17-propionyloxy-pregna-1,4-dien-21-yl] ester] (Fmoc-AAPV-{Methylprednisolone(17-OCOEt)}) | 4 | 100% | 30 | 16 | 48 | 42 | 78 | 66 | –
3 | CC(C)[C@H](NC(=O)[C@@H]1CCCN1C(=O)[C@H](C)NC(=O)[C@H](C)NC(=O)OCC1c2ccccc2-c2ccccc21)C(=O)OCC(=O)[C@@]1(O)CC[C@H]2[C@@H]3C[C@H](C)C4=CC(=O)C=C[C@]4(C)[C@H]3[C@@H](O)C[C@@]21C [Example 22] (Fmoc-AAPV-X1) | 6 | 370% | – | – | – | – | – | – | –
4 | CC(C)[C@H](NC(=O)[C@@H]1CCCN1C(=O)[C@H](C)NC(=O)[C@H](C)NC(=O)OCC1c2ccccc2-c2ccccc21)C(=O)OCC(=O)[C@@]1(O)CC[C@H]2[C@@H]3CCC4=CC(=O)CC[C@]4(C)[C@H]3[C@@H](O)C[C@@]21C [Example 29, N-(N-(N-(N-(9H-Fluoren-9-yl-methoxycarbonyl)-L-alanyl)-L-alanyl) -L-prolyl)-L-valine [11β,17,21-trihydroxy-3,20-dioxo-pregn-4-en-21-yl] ester] (Fmoc-AAPV-X5) | – | – | – | – | – | – | – | – | k.k. [n.c.]
5 | CCCCC(=O)O[C@]1(C(=O)COC(=O)[C@@H](NC(=O)[C@@H]2CCCN2C(=O)[C@H](C)NC(=O)[C@H](C)NC(=O)OCC2c3ccccc3-c3ccccc32)C(C)C)[C@@H](C)C[C@H]2[C@@H]3CCC4=CC(=O)C=C[C@]4(C)[C@@]3(F)[C@@H](O)C[C@@]21C [Example 39, N-(N-(N-(N-(9H-Fluoren-9-yl-methoxycarbonyl)-L-alanyl)-L-alanyl) -L-prolyl)-L-valine [9α-fluoro-11β,21-dihydroxy-16β-methyl-3,20-dioxo-17-valeroyloxy-pregna-1,4-dien-21-yl] ester] | 0 | 42% | – | – | – | – | – | – | –
